In the Kinase Knowledgebase extract (Sharma et al. 2016):

Legend:
[1] = molecular target: PIK3CA (human) (UniProt P42336); assay: Enzyme Assay
[2] = molecular target: PIK3CD (Human) (UniProt O00329); assay: Enzyme Assay
[3] = molecular target: PIK3CG (human) (UniProt P48736); assay: Enzyme Assay
[4] = molecular target: PIK3CA (human) (UniProt P42336); assay: Cell-Based Assay; conditions: rat-1
[5] = molecular target: PIK3CD (Human) (UniProt O00329); assay: Cell-Based Assay; conditions: rat-1
[6] = molecular target: PIK3CG (human) (UniProt P48736); assay: Cell-Based Assay; conditions: u937

Sequence of PIK3CD (Human) (O00329 whole entry, looked up): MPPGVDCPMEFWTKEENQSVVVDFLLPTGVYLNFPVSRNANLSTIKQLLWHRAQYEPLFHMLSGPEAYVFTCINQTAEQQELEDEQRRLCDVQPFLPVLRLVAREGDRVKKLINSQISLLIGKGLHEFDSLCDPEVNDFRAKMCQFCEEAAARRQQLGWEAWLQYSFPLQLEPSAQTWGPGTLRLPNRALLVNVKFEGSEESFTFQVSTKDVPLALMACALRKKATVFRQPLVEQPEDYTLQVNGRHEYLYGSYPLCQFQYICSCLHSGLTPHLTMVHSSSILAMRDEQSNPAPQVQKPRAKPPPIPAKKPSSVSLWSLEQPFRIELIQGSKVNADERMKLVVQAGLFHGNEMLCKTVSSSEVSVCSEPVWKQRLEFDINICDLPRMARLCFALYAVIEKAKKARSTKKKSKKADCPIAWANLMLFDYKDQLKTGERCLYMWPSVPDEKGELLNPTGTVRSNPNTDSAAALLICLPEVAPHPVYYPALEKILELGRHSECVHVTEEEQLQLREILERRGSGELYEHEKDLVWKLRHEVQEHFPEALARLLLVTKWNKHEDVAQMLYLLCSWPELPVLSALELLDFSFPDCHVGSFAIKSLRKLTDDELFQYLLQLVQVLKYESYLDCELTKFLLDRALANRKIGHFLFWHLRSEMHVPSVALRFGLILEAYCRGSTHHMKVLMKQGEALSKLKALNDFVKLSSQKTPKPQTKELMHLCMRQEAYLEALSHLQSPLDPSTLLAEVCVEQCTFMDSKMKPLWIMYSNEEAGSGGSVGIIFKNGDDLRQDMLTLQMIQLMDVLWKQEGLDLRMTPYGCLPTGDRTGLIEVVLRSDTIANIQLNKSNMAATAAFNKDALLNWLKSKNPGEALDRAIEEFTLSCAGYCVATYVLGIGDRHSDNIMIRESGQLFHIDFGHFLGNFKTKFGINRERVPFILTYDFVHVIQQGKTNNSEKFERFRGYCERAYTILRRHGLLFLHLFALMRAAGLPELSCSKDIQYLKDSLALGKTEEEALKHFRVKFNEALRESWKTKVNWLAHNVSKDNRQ
Sequence of PIK3CA (human) (P42336 whole entry, looked up): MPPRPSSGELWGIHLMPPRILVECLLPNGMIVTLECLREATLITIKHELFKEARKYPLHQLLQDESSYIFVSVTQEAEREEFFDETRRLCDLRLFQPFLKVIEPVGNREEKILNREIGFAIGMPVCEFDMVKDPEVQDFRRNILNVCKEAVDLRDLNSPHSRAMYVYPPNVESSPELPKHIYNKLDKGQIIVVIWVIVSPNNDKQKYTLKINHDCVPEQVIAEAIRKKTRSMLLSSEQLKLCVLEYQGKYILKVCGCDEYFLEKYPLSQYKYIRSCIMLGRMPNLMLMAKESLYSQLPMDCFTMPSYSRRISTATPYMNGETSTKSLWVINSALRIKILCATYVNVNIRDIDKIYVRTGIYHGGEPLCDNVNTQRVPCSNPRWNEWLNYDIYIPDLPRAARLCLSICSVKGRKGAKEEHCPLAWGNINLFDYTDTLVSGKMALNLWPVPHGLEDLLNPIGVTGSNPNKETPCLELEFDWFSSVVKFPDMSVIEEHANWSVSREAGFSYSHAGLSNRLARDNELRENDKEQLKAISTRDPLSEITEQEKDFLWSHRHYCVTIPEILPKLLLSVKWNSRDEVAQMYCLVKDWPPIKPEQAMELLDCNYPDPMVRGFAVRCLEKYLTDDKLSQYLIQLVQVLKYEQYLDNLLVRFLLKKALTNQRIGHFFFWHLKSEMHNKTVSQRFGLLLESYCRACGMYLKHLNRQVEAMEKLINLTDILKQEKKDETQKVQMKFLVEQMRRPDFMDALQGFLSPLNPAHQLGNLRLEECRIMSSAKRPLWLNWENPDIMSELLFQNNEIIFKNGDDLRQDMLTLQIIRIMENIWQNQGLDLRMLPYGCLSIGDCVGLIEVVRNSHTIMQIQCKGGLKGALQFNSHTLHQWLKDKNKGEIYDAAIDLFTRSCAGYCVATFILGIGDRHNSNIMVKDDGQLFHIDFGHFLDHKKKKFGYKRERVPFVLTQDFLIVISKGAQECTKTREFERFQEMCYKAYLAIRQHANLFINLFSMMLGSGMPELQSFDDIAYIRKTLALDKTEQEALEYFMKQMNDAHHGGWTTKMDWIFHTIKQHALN
Sequence of PIK3CG (human) (P48736 whole entry, looked up): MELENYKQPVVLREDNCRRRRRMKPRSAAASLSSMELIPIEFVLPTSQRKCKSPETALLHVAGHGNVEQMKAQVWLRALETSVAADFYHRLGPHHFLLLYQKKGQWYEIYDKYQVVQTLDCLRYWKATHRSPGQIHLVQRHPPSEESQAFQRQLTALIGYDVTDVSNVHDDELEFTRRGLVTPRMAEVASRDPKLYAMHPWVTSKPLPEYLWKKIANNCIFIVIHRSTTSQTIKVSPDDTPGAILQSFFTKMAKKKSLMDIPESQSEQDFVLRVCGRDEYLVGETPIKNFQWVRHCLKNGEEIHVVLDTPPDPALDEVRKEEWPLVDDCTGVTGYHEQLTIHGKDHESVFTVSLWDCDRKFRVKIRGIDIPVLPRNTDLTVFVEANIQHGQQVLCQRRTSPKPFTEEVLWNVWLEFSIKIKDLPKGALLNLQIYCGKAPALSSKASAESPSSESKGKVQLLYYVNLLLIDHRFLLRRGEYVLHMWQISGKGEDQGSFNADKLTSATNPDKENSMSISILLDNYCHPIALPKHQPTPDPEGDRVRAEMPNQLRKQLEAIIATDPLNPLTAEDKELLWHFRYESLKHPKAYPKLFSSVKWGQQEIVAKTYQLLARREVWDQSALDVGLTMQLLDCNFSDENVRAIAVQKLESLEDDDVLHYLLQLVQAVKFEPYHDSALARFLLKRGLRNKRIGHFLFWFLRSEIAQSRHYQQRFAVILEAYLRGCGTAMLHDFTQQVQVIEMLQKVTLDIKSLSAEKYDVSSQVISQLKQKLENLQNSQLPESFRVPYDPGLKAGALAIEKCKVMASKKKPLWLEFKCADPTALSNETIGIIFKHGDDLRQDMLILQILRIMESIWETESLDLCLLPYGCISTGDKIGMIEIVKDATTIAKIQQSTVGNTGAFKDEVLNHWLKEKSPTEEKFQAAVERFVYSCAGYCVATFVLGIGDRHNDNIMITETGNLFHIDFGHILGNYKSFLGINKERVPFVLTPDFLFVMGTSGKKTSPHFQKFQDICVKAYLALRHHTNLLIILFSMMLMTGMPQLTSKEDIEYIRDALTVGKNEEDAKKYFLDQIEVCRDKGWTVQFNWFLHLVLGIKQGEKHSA

SMILES	IC50 [1]	IC50 [2]	IC50 [3]	IC50 [4]	IC50 [5]	IC50 [6]
CO[C@H]1C[C@@H](c2nc3cccc(C(F)(F)F)c3c(=O)n2N2CCOCC2)N(c2ncnc(N)c2C#N)C1	> 10 µM	0.053 µM	1.9 µM	> 10 µM	0.117 µM	1.89 µM
CS(=O)(=O)c1c(F)ccc2nc([C@@H]3CCCN3c3ncnc(N)c3C#N)n(-c3ccccc3)c(=O)c12	4.5 µM	0.084 µM	7.2 µM	> 10 µM	0.065 µM	> 10 µM
Cc1nc(N)nc(N2CCC[C@H]2c2nc3cccc(C(F)(F)F)c3c(=O)n2-c2cncnc2)c1C#N	4.2 µM	0.1 µM	0.23 µM	> 10 µM	0.295 µM	0.306 µM
Nc1nc(N2CCC[C@H]2c2nc3cccc(Cl)c3c(=O)n2N2CCOCC2)c2nc[nH]c2n1	4.6 µM	0.042 µM	0.063 µM	> 10 µM	0.065 µM	1.82 µM
Cc1nc(N)nc(N2C[C@@H](O)C[C@H]2c2nc3cccc(C(F)(F)F)c3c(=O)n2N2CCOCC2)c1C#N	2 µM	0.066 µM	0.1 µM	4.59 µM	0.092 µM	0.083 µM
Nc1nc(N2CCC[C@H]2c2nc3cccc(Cl)c3c(=O)n2-c2cccnc2)c2nc[nH]c2n1	1.5 µM	0.008 µM	0.024 µM	> 10 µM	0.077 µM	0.675 µM
Cc1nc(N)nc(N2CCC[C@H]2c2nc3ccc(F)c(S(C)(=O)=O)c3c(=O)n2-c2ccccc2)c1C#N	5.5 µM	0.038 µM	1.1 µM	> 10 µM	0.103 µM	1.58 µM
CS(=O)(=O)N1CC[C@H](n2c([C@@H]3CCCN3c3ncnc4[nH]cnc34)nc3cccc(Cl)c3c2=O)C1	> 10 µM	0.36 µM	0.37 µM	> 10 µM	0.939 µM	> 10 µM
Cc1nc(N)nc(N2C[C@@H](O)C[C@H]2c2nc3cccc(C(F)(F)F)c3c(=O)n2-c2cccc(F)c2)c1C#N	1.7 µM	0.024 µM	0.08 µM	6.57 µM	0.016 µM	0.01 µM
N#Cc1c(N)ncnc1N1OCC[C@H]1c1nc2cccc(Cl)c2c(=O)n1-c1ccccc1	2 µM	< 0.003 µM	0.044 µM	3.69 µM	0.014 µM	0.144 µM
N#Cc1c(N)ncnc1N1CCC[C@H]1c1nc2cccc(C(F)(F)F)c2c(=O)n1-c1cccnc1	2.7 µM	0.075 µM	0.95 µM	5.93 µM	0.098 µM	0.934 µM
N#Cc1c(N)ncnc1N1C[C@@H](O)C[C@H]1c1nc2ccc(F)c(F)c2c(=O)n1-c1ccccc1	4 µM	0.096 µM	1.3 µM	> 10 µM	0.045 µM	1.59 µM

Stronger by IC50 [1], values ahead:

IC50 [1]	IC50 [2]	IC50 [3]	IC50 [4]	IC50 [5]	IC50 [6]	SMILES
1.4 µM	0.005 µM	0.019 µM	4.31 µM	0.021 µM	0.178 µM	O=c1c2c(Cl)cccc2nc([C@@H]2C[C@H](O)CN2c2ncnc3[nH]cnc23)n1-c1ccccc1
1.4 µM	0.016 µM	0.21 µM	7.22 µM	0.091 µM	0.034 µM	O=c1c2c(C(F)(F)F)cccc2nc([C@@H]2C[C@H](O)CN2c2ncnc3[nH]cnc23)n1-c1ccccc1
1.3 µM	0.026 µM	0.035 µM	4.2 µM	0.023 µM	0.053 µM	Cc1nc(N)nc(N2C[C@@H](F)C[C@H]2c2nc3cccc(C(F)(F)F)c3c(=O)n2-c2cccnc2)c1C#N
1.3 µM	0.018 µM	0.009 µM	3.3 µM	0.029 µM	0.045 µM	Nc1nc(N2C[C@@H](F)C[C@H]2c2nc3cccc(C(F)(F)F)c3c(=O)n2-c2ccccc2)c2nc[nH]c2n1
1.3 µM	0.004 µM	0.035 µM	4.04 µM	0.01 µM	0.209 µM	CO[C@H]1C[C@@H](c2nc3cccc(Cl)c3c(=O)n2-c2ccccc2)N(c2ncnc(N)c2C#N)C1
1.3 µM	0.018 µM	0.09 µM	6.6 µM	0.024 µM	0.114 µM	Cc1nc(N)nc(N2C[C@@H](O)C[C@H]2c2nc3cccc(F)c3c(=O)n2-c2ccccc2)c1C#N
1.1 µM	0.013 µM	0.075 µM	4.6 µM	0.042 µM	0.343 µM	Cc1nc(N)nc(N2CCC[C@H]2c2nc3cccc(S(C)(=O)=O)c3c(=O)n2-c2ccccc2)c1C#N
1 µM	0.012 µM	0.086 µM	6.24 µM	0.009 µM	0.024 µM	Cc1nc(N)nc(N2C[C@@H](O)C[C@H]2c2nc3cccc(Cl)c3c(=O)n2-c2cccnc2)c1C#N
0.91 µM	0.014 µM	0.042 µM	3.41 µM	0.014 µM	0.042 µM	Cc1nc(N)nc(N2C[C@@H](F)C[C@H]2c2nc3cccc(C(F)(F)F)c3c(=O)n2-c2cccc(F)c2)c1C#N
0.79 µM	0.018 µM	0.071 µM	1.79 µM	0.015 µM	0.027 µM	Cc1nc(N)nc(N2CCC[C@H]2c2nc3cccc(Cl)c3c(=O)n2N2CCOCC2)c1C#N
0.698 µM	0.221 µM	0.085 µM	4.23 µM	0.086 µM	0.219 µM	Cc1nc(N)nc(N2C[C@@H](O)C[C@H]2c2nc3cccc(Cl)c3c(=O)n2C2CC2)c1C#N
0.62 µM	0.005 µM	0.034 µM	> 10 µM	0.017 µM	0.117 µM	O=c1c2c(Cl)cccc2nc([C@@H]2C[C@H](OC(F)F)CN2c2ncnc3[nH]cnc23)n1-c1ccccc1
0.59 µM	< 0.003 µM	0.019 µM	4.23 µM	0.005 µM	0.037 µM	CC1(n2c([C@@H]3CCCN3c3ncnc(N)c3C#N)nc3cccc(Cl)c3c2=O)CC1
0.393 µM	< 0.003 µM	0.024 µM	1.75 µM	0.007 µM	0.074 µM	N#Cc1c(N)ncnc1N1CCC[C@H]1c1nc2cccc(Cl)c2c(=O)n1-c1ccccc1
0.3 µM	0.004 µM	0.017 µM	> 10 µM	0.076 µM	0.148 µM	CS(=O)(=O)N[C@H]1C[C@@H](c2nc3cccc(Cl)c3c(=O)n2-c2ccccc2)N(c2ncnc3[nH]cnc23)C1
0.27 µM	0.014 µM	0.024 µM	1.09 µM	0.007 µM	0.018 µM	Cc1nc(N)nc(N2C[C@@H](O)C[C@H]2c2nc3ccc(F)c(C)c3c(=O)n2-c2ccccc2)c1C#N
0.16 µM	< 0.003 µM	< 0.003 µM	0.601 µM	< 0.003 µM	0.035 µM	Cc1nc(N)nc(N2C[C@@H](O)C[C@H]2c2nc3cccc(C)c3c(=O)n2-c2ccccc2)c1C#N
